Here are results for 24 compounds from PubChem BioAssay (NCI).

What all share (test): DTP human tumour cell line panel, 48 h
Experiment [1] relates to SK-OV-3 ovarian.
In experiment [2] the test system is EKVX NSCLC.
The subject of experiment [3] is OVCAR-3 ovarian.
Experiment [4] relates to UACC-62 melanoma.
The test system of experiment [5] is NCI/ADR-RES ovarian.
Experiment [6] relates to OVCAR-5 ovarian.
Experiment [7] concerns A549 NSCLC.
Experiment [8] has as its system 786-0 renal.
Experiment [9] deals with U251 CNS.
For experiment [10], the system named is MDA-MB-435.
Experiment [11] deals with UO-31 renal.

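Protocol summary: plate cells (96-well), add compound at 5 concentrations, incubate 48 h, interpolate endpoints linearly. The concentration for full growth arrest is given as TGI.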 Where only a bound is given, the exact number is not on record here.

Consider `COc1cccc2c1C(=O)c1c(O)c3c(c(O)c1C2=O)CC(O)(C(C)=O)CC3OC1OC(COC(C)=O)C(OC(C)=O)C(OC(C)=O)C1OC(C)=O` (centres undefined), for which the TGI in experiment [1] is over 100 µM; in experiment [2], 27.4 µM; in experiment [3], 31.2 µM; in [4], over 100 µM; in experiment [5], over 100 µM; in [6], 96.6 µM. Further, the TGI in [7] is over 100 µM; in [8], 56.3 µM; in experiment [9], 27.5 µM; in experiment [10], over 100 µM; in experiment [11] it was over 100 µM.

As for `O=C(N/N=C\c1ccc(Cl)cc1)Nc1cccc2ccccc12`, the TGI was 6.75 µM in experiment [1]; over 100 µM in experiment [2]; 3.24 µM in experiment [3]; over 100 µM in [4]; over 100 µM in experiment [5]; over 100 µM in experiment [6]. The TGI turned out to be 27 µM in experiment [7]; 3.9 µM in [8]; 10.1 µM in experiment [9]; 6.67 µM in experiment [10]; 4.84 µM in experiment [11].

On to `O=C1NC(NNc2ccccc2)=N/C1=C\c1ccco1`, for which the TGI in experiment [1] is over 100 µM; in experiment [2], 46.7 µM; in experiment [3], 38.1 µM; in experiment [4], 17.3 µM; in [5], over 100 µM; in experiment [6], over 100 µM. The TGI in experiment [7] is over 100 µM; in [8], 40.2 µM; in experiment [9], 39.8 µM; in experiment [10] it was 47.6 µM; in experiment [11], 55.2 µM.

For the compound `COc1c(N2CCCCC2)c2c(=O)c3ccccc3oc2c2c3ccccc3n(C)c12`, the TGI in experiment [1], in experiment [2], in experiment [3], in experiment [4], in experiment [5] and in [6] was over 100 µM throughout. The TGI in experiment [7], in experiment [8], in experiment [9], in experiment [10] and in experiment [11] was over 100 µM throughout.

As to `O=[N+]([O-])c1ccc(C2NC(=S)NC3c4cc([N+](=O)[O-])ccc4CCCC23)cc1` (centres undefined), the TGI in [1], in experiment [2], in experiment [3], in experiment [4], in [5] and in experiment [6] was over 100 µM throughout. In addition, the TGI in experiment [7], in [8], in experiment [9], in experiment [10] and in [11] was over 100 µM each time.

Consider `CC(C)(C)c1cc(OCc2n[nH]c(=S)n2N)c(Cl)cc1OCc1n[nH]c(=S)n1N`, for which the TGI in experiment [1] is over 100 µM; in [2], over 100 µM; in experiment [3], over 100 µM; in [4] it was 50.3 µM; in experiment [5] it was over 100 µM; in experiment [6] it was over 100 µM. Also, the TGI in [7], in experiment [8], in [9], in experiment [10] and in experiment [11] was over 100 µM in each case.

As to `CC(C)(CN1CCCCC1)C(=O)CC(SCCS(=O)(=O)O)c1ccccc1` (centres undefined), the TGI in experiment [1] is over 100 µM; in experiment [2], 50.5 µM; in [3], 29.8 µM; in experiment [4], 29.5 µM; in experiment [5] it was 70.6 µM; in experiment [6], 27 µM. Further, the TGI was over 100 µM in [7]; 25.4 µM in experiment [8]; 53.2 µM in experiment [9]; 29.3 µM in experiment [10]; 25.1 µM in experiment [11].

As to `CCOC(=O)C12CCC(c3c(C)cccc3C)(O1)C(C(=O)OC)=C2C(=O)OC` (centres undefined), the total growth inhibition concentration (TGI) in experiment [1] was over 10 µM; in experiment [2], over 10 µM; in experiment [3], 4.2 µM; in [4] it was over 10 µM; in [5] it was over 10 µM; in [6], over 9.61 µM. Further, the TGI is over 10 µM in experiment [7]; over 10 µM in experiment [8]; over 10 µM in [9]; 2.27 µM in [10]; over 10 µM in experiment [11].

As for `CCOC(=O)c1cc(C2CCN(Cc3ccccc3)C2=O)c(C(=O)/C=C(/C)N)[nH]1` (centres undefined), the TGI in [1], in experiment [2], in experiment [3], in experiment [4], in [5] and in experiment [6] was over 100 µM in each case. In addition, the TGI in [7], in experiment [8], in experiment [9], in [10] and in experiment [11] was over 100 µM in each case.

`CC(C)C1CCC(=O)CC1CCCCC1CC(=O)CC1O[Si](C)(C)C(C)(C)C` (centres undefined): the concentration for total growth inhibition (TGI) in experiment [1] was 25.7 µM; in experiment [2], 36.1 µM; in [3] it was over 47.5 µM; in experiment [4] it was 17.1 µM; in experiment [5], 21.2 µM; in experiment [6], 26.2 µM. Further, the TGI in experiment [7] was determined as 32.9 µM; in experiment [8] it was 17.1 µM; in [9] it was 5.84 µM; in experiment [10], 10.9 µM; in experiment [11], 20.2 µM.

As to `Cc1cnc2c(c1)C(=O)N(c1ccc(Br)cc1)S2(=O)=O`, the TGI in experiment [1], in experiment [2], in experiment [3], in experiment [4], in experiment [5] and in experiment [6] was over 100 µM each time. Besides, the TGI in experiment [7], in experiment [8], in experiment [9], in experiment [10] and in experiment [11] was over 100 µM throughout.

In the case of `CCOC(=O)c1c(Br)c(-c2ccc([N+](=O)[O-])cc2)c(Br)n1C`, the TGI in experiment [1], in [2], in [3], in experiment [4], in [5] and in experiment [6] was over 10 µM throughout. Moreover, the concentration for total growth inhibition (TGI) in [7], in experiment [8], in experiment [9], in experiment [10] and in experiment [11] was over 10 µM in each case.

For the compound `C[N+]1(C)C/C(=C\C=C\c2ccccc2)C(=O)/C(=C/C=C/c2ccccc2)C1`, the TGI is 98.8 µM in [1]; over 87.4 µM in experiment [2]; 42.6 µM in experiment [3]; 14.2 µM in experiment [4]; over 100 µM in experiment [5]; 54.7 µM in experiment [6]. For the same compound, the TGI in [7] is over 100 µM; in experiment [8], 55.3 µM; in experiment [9], 19.2 µM; in experiment [10], 20 µM; in experiment [11], over 100 µM.

For `Cn1c2ccccc2c(=NNc2ccc(S(=O)(=O)N=C(N)N)cc2)c2ccccc21`, the TGI was 21.3 µM in [1]; 25 µM in [2]; 23 µM in [3]; 32 µM in experiment [4]; 71.1 µM in experiment [5]; 20.2 µM in experiment [6]. Further, the TGI in experiment [7] is 26.7 µM; in experiment [8] it was 19.2 µM; in experiment [9], 21.6 µM; in experiment [10] it was 23.7 µM; in experiment [11], 22 µM.

With `COc1c(-c2ccc(F)cc2)oc2c(CC(=O)O)cccc2c1=O`, the TGI in [1], in experiment [2], in experiment [3], in experiment [4], in experiment [5] and in experiment [6] was over 100 µM throughout. Moreover, the TGI in experiment [7] was over 100 µM; in [8] it was over 100 µM; in experiment [9], over 100 µM; in [10] it was over 100 µM; in [11], 96.6 µM.

Turning to `CN(C)C1(N(C)C)Oc2c(c(=O)n(C)c(=O)n2C)C(c2ccc(F)cc2)C1(F)F` (centres undefined), the TGI in experiment [1], in experiment [2], in experiment [3], in experiment [4], in experiment [5] and in experiment [6] was over 100 µM each time. Further, the TGI in experiment [7], in experiment [8], in experiment [9], in [10] and in experiment [11] was over 100 µM each time.

In the case of `COc1ccc(C(SCCO)(c2ccc(OC)cc2)c2ccc(OC)cc2)cc1`, the TGI is 94.5 µM in experiment [1]; 36.5 µM in [2]; 28.4 µM in experiment [3]; 30.1 µM in experiment [4]; 49.1 µM in [5]; 79.7 µM in experiment [6]. Also, the total growth inhibition concentration (TGI) in experiment [7] stood at 69.3 µM; in experiment [8], 29.7 µM; in experiment [9], 32.6 µM; in experiment [10], 23.5 µM; in [11], 34.4 µM.

Turning to `CC(C)NC(=O)OCc1c(COC(=O)NC(C)C)c(-c2cc[n+](COC(=O)Cc3ccccc3)cc2)n2c1CCC2`, the TGI in experiment [1], in experiment [2], in [3], in experiment [4], in experiment [5] and in [6] was over 100 µM each time. In addition, the TGI in experiment [7], in experiment [8], in experiment [9], in experiment [10] and in [11] was over 100 µM in each case.

On to `Cc1ccc(C(CCO)CCO)nc1`, for which the TGI in experiment [1], in experiment [2], in experiment [3], in experiment [4], in experiment [5] and in [6] was over 100 µM in each case. Also, the total growth inhibition concentration (TGI) in experiment [7], in experiment [8], in experiment [9], in experiment [10] and in experiment [11] was over 100 µM in each case.

Take `Oc1c(Cl)c(Cl)c(O)c(-c2cnc(-c3ncc(-c4c(O)c(Cl)c(Cl)c(O)c4Cl)s3)s2)c1Cl`: the TGI in experiment [1] was over 100 µM; in [2], 61.5 µM; in [3], 52.4 µM; in experiment [4], 46.8 µM; in experiment [5], 71.6 µM; in [6] it was 36.4 µM. Moreover, the TGI was over 100 µM in experiment [7]; 53.2 µM in experiment [8]; 48.7 µM in experiment [9]; 47.7 µM in experiment [10]; 58.7 µM in [11].

Regarding `O=c1[nH]nc(-c2ccccc2)n1-n1cccc1`, the TGI in experiment [1], in experiment [2], in [3], in experiment [4], in experiment [5] and in [6] was over 100 µM each time. For the same compound, the TGI in experiment [7], in [8], in [9], in [10] and in [11] was over 100 µM each time.

Turning to `O=C(OCC1CC(C2(O)CCCCC2)C(=O)O1)c1ccccc1` (centres undefined), the TGI in experiment [1], in experiment [2], in experiment [3], in experiment [4], in experiment [5] and in experiment [6] was over 100 µM throughout. The TGI in [7], in experiment [8], in experiment [9], in [10] and in [11] was over 100 µM throughout.

Take `O=C(NCCCN1CCN(CCCNC(=O)c2cc(-c3ccccc3)nc3ccccc23)CC1)c1cc(-c2ccccc2)nc2ccccc12`: the TGI in [1] is 40.2 µM; in experiment [2], 51.5 µM; in experiment [3] it was over 53.6 µM; in experiment [4], 37.5 µM; in [5], over 72.3 µM; in [6] it was over 78.2 µM. Besides, the TGI in experiment [7] is 48.7 µM; in experiment [8] it was 21.5 µM; in experiment [9] it was 30.7 µM; in [10], 14.7 µM; in experiment [11] it was over 42.2 µM.

`COc1cc2c(cc1OC)-c1cc3cc(OC)c(OC)cc3c(C)[n+]1CC2` (tested in a mixture with another compound): the TGI is over 100 µM in [1]; over 100 µM in experiment [2]; over 100 µM in experiment [3]; 95.5 µM in experiment [4]; over 100 µM in [5]; over 100 µM in experiment [6]. Also, the total growth inhibition concentration (TGI) in experiment [7], in experiment [8], in [9], in experiment [10] and in experiment [11] was over 100 µM each time.
